Results as given in PubChem BioAssay (NCI).
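Growth conditions: 96-well plates. Treatment: test compound, 48 hours, 5 concentrations. Analysis: linear interpolation between bracketing concentrations; unreached endpoints set to highest concentration. Abbreviation: GI50, concentration required for 50% inhibition of growth. Definition used: TGI = concentration required for complete inhibition of growth.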

Tests used:
Experiment in all cases: DTP human tumour cell line panel, 48 h
CCRF-CEM leukemia = system: CCRF-CEM leukemia
RXF 393 renal = system: RXF 393 renal
TK-10 renal = system: TK-10 renal
SK-OV-3 ovarian = system: SK-OV-3 ovarian
HCT-116 colon = system: HCT-116 colon
SK-MEL-5 melanoma = system: SK-MEL-5 melanoma
SF-295 CNS = system: SF-295 CNS
RPMI-8226 leukemia = system: RPMI-8226 leukemia
OVCAR-5 ovarian = system: OVCAR-5 ovarian
NCI/ADR-RES ovarian = system: NCI/ADR-RES ovarian

## CCC[CH2][Sn]1([CH2]CCC)[O]C(=O)c2ccc(N)cc2[O]1
CCRF-CEM leukemia
  GI50: 0.0357 µM
  TGI: 1.85 µM
RXF 393 renal
  GI50: 0.112 µM
  TGI: 0.427 µM
TK-10 renal
  GI50: 0.528 µM
  TGI: 1.69 µM
SK-OV-3 ovarian
  GI50: 1.34 µM
  TGI: 2.92 µM
HCT-116 colon
  GI50: 0.965 µM
  TGI: 2.19 µM
SK-MEL-5 melanoma
  GI50: 0.692 µM
  TGI: 2.15 µM
SF-295 CNS
  GI50: 1.41 µM
  TGI: 2.76 µM
RPMI-8226 leukemia
  GI50: 0.143 µM
  TGI: 1.79 µM
OVCAR-5 ovarian
  GI50: 1.77 µM
  TGI: 3.3 µM
NCI/ADR-RES ovarian
  GI50: 1.76 µM
  TGI: 4.12 µM

## COc1ccc(NC(=O)n2nc(/C=C\c3ccc(O)c(OC)c3)cc2/C=C\c2ccc(O)c(OC)c2)cc1
CCRF-CEM leukemia
  GI50: 2.34 µM
  TGI: 32.7 µM
RXF 393 renal
  GI50: 3.02 µM
  TGI: 8.87 µM
TK-10 renal
  GI50: 10.2 µM
  TGI: 95.3 µM
SK-OV-3 ovarian
  GI50: 3.66 µM
  TGI: 27.5 µM
HCT-116 colon
  GI50: 3.22 µM
  TGI: 42.9 µM
SK-MEL-5 melanoma
  GI50: 3.67 µM
  TGI: 16.1 µM
SF-295 CNS
  GI50: 6.25 µM
  TGI: 53.2 µM
RPMI-8226 leukemia
  GI50: 3.38 µM
  TGI: 29.2 µM
OVCAR-5 ovarian
  GI50: 18.8 µM
  TGI: 54.1 µM
NCI/ADR-RES ovarian
  GI50: 4.28 µM
  TGI: > 100 µM

## CC[C@@]12C=CCN3CC[C@]4(c5cc(NC(=O)COc6cc(OCC(=O)Nc7cc8c(cc7OC)N(C)[C@H]7[C@@](O)(C(=O)OC)[C@H](OC(C)=O)[C@]9(CC)C=CCN%10CC[C@]87[C@@H]%109)cc7oc(-c8ccccc8)cc(=O)c67)c(OC)cc5N(C)[C@@H]4[C@](O)(C(=O)OC)[C@H]1OC(C)=O)[C@H]32
CCRF-CEM leukemia
  GI50: 3.51 µM
  TGI: > 100 µM
RXF 393 renal
  GI50: 1.58 µM
  TGI: 3.28 µM
TK-10 renal
  GI50: 12.3 µM
  TGI: 61.7 µM
SK-OV-3 ovarian
  GI50: 6.49 µM
  TGI: 19.7 µM
HCT-116 colon
  GI50: 1.79 µM
  TGI: 6.14 µM
SK-MEL-5 melanoma
  GI50: 36.9 µM
  TGI: > 100 µM
SF-295 CNS
  GI50: 3.05 µM
  TGI: 11.9 µM
RPMI-8226 leukemia
  GI50: 3.2 µM
  TGI: > 100 µM
OVCAR-5 ovarian
  GI50: 3.76 µM
  TGI: 48.2 µM
NCI/ADR-RES ovarian
  GI50: > 100 µM
  TGI: > 100 µM

## COC(=O)[C@H]1[C@H]2C[C@@H]3c4[nH]c5cc(OC)ccc5c4CCN3C[C@H]2C[C@@H](OC(=O)/C=C/c2cc(OC)c(OC)c(OC)c2)[C@@H]1OC
CCRF-CEM leukemia
  GI50: 1.48 µM
  TGI: 5.62 µM
RXF 393 renal
  GI50: 11 µM
  TGI: 31.5 µM
TK-10 renal
  GI50: 3.35 µM
  TGI: 11.3 µM
SK-OV-3 ovarian
  GI50: 15.4 µM
  TGI: 32.3 µM
HCT-116 colon
  GI50: 3.18 µM
  TGI: 9.57 µM
SK-MEL-5 melanoma
  GI50: 3.66 µM
  TGI: 15.5 µM
SF-295 CNS
  GI50: 5.54 µM
  TGI: 24.9 µM
RPMI-8226 leukemia
  GI50: 4.05 µM
  TGI: 85.1 µM
OVCAR-5 ovarian
  GI50: 19.3 µM
  TGI: 56.7 µM
NCI/ADR-RES ovarian
  GI50: 4.55 µM
  TGI: 28.5 µM

## CCN(CC)CCOc1c(OC)c(Br)cc2c(C)c(C(=O)OC)oc12
CCRF-CEM leukemia
  GI50: 0.154 µM
  TGI: 0.72 µM
RXF 393 renal
  GI50: 4.17 µM
  TGI: 13 µM
TK-10 renal
  GI50: 1.12 µM
  TGI: 2.99 µM
SK-OV-3 ovarian
  GI50: 1.29 µM
  TGI: 4.1 µM
HCT-116 colon
  GI50: 1.17 µM
  TGI: 3.15 µM
SK-MEL-5 melanoma
  GI50: 0.818 µM
  TGI: 1.53 µM
SF-295 CNS
  GI50: 1.18 µM
  TGI: 2.99 µM
RPMI-8226 leukemia
  GI50: 0.186 µM
  TGI: 0.834 µM
OVCAR-5 ovarian
  GI50: 3.14 µM
  TGI: 9.29 µM
NCI/ADR-RES ovarian
  GI50: 6.45 µM
  TGI: 12.8 µM

## COc1ccc([C@@H](O)c2cc(-c3ncnc4cc(N5CCOCC5)ccc34)c(F)cc2Cl)nn1
CCRF-CEM leukemia
  GI50: 3.5 µM
  TGI: 26.7 µM
RXF 393 renal
  GI50: 0.678 µM
  TGI: 11.6 µM
TK-10 renal
  GI50: 1.95 µM
  TGI: 17.7 µM
SK-OV-3 ovarian
  GI50: 1.27 µM
  TGI: 10.7 µM
HCT-116 colon
  GI50: 3.29 µM
  TGI: 21.4 µM
SK-MEL-5 melanoma
  GI50: 1.99 µM
  TGI: 8.1 µM
SF-295 CNS
  GI50: 1.48 µM
  TGI: 25.8 µM
RPMI-8226 leukemia
  GI50: 3.58 µM
  TGI: 22.4 µM
OVCAR-5 ovarian
  GI50: 7.2 µM
  TGI: > 100 µM
NCI/ADR-RES ovarian
  GI50: 4.87 µM
  TGI: 95.4 µM
